Reference: patent US20220386582A1, “METHOD AND DEVICE TO TRAP ACARIDS” (DOMOBIOS, priority 2015, published 2022)

Columns and labels:
[1] = system: Dermatophagoides pteronyssinus; assay: Binary choice test in Petri dish, colored felt with attracting agent versus white felt with water; type: in vivo
Experimental: Aim of the experiments: All experiments are tests of binary choice aiming to determine the preference of mites and the place where they prefer to stay (at least for 30 min).
Rearing: The species studied was Dermatophagoides pteronyssinus, a dust mite common in mattresses in Eurasia. Mites are reared in Petri dishes and fed with human skin flakes (skin and whiskers obtained by cleaning electric shavers). All mites were reared together under defined conditions (20° C. and 75% relative humidity). The experiments took place in a room kept at 20° C. and 40% relative humidity.
Materials and methods: A group of mites (20<n<40) was placed in the center of a Petri dish (ø5.5 cm) around which two semi-circles of felt were placed (see FIG. 1). The pieces of felts were 70 mg/cm^2, their thickness was 2 mm. One felt is the control (control felt), for instance impregnated with water; the other felt is the felt with the tested item, for instance the felt that is impregnated with a chemical compound that is tested.
Mites move spontaneously towards one of the two felts.
Observations and counting of mites was made under binocular microscope (magnification 10×). The set-up is illuminated with a cold lamp (KL 1500 LCD, Schott ●), the lighting is symmetric and the light intensity was 50Klux. The experimental conditions were controlled in the room (T° C.: 19-22° C. and RH 40%). […]

Dermatophagoides farinae = assay: Mini-mattress trap: attraction capabilities of attracting solutions sprayed on felt; type: in vivo
Experimental: (§1) Rearing: The species studied were Dermatophagoides pteronyssinus and Dermatophagoides farinae, house dust mite common in mattresses in Eurasia. Mites are reared in Petri dishes and fed with human skin flakes (skin and whiskers obtained by cleaning electric […]). All mites were reared together under defined conditions (20° C. and 75% relative humidity). The experiments took place in a room kept at 20° C. and 40% relative humidity. Aim of the experiments: The aim was to test the trap in condition similar to the conditions that will be met by the user of the trap. Materials and methods: The mattresses were built at a smaller scale (15× reduction) than usual mattresses. These mini-mattresses are made in polyurethane and covered by a cover in cotton. They were infested with mites since at least 3 months. The fabric was a felt of 20 mg/cm^2 and is a rectangle of 10 cm×20 cm. It was placed on the mini-mattress. Then the attracting solution was sprayed on the fabric with a spray bottle. The fabric was left in place on the mattress during one hour. During this time, the mites moved in the felt. It is very difficult to count directly the mites hidden in the mattress and in the fabric. Therefore, we used a Berlèse funnel which is a device that is usually used to separate insects from litter. Here, it was used to separate the mites from their mattress or from the fabric. The Berlèse funnel uses a light bulb to heat and dry the mattress, thus driving the mites downwards through a screen and into a collecting jar containing some food and some water. […] They are attracted by a source of moisture and the smell of food. The mattress or blanket were therefore placed in the funnel (FIG. 2). The mites went downwards in the direction of the jar, then in the jar. The harvest of the jar containing the mites took place after one day. Mites had then 24 hours to migrate to the jar collector. As a substantial proportion of the population is immobile (moulting mites), trapping is less efficient than it would be otherwise and estimate of population size that is trapped are likely to be biased. To avoid this bias and make a proper assessment of the populations in infested mattresses, mattresses were carefully brushed with a soft brush at the end of the manipulation meaning that immobile mites and eggs also fall into the funnel. Fabric was carefully brushed too. The Berlèze funnel was rinsed with ethanol. Thus, mites still on the inner wall of the funnel were driven by ethanol in the jar collector. At the end of the experiment, the jar contained: the food used as attracting to mites, a small amount of water also used for attracting, mites, and ethanol. The jar was emptied into a Petri dish and we counted mites under binocular. Counting of mites was made under binocular microscope (magnification 10×). The set-up is illuminated with a cold lamp (KL 1500 LCD, Schott ●). The felt was sprayed with different attracting compositions: a solution of lavandulol, a solution of Tween 60, a combination of lavandulol and Tween 60, a solution of citral, and the attracting solution commercialized under the brand name Acar'up were compared at various dilutions.

[2] = system: Dermatophagoides pteronyssinus; assay: as above; type: in vivo
Experimental: as §1

mites = conditions: washing at low temperature, final concentration of 0.03% benzyl benzoate (Bischoff et al 1998); cited from earlier work
[3] = Dilution 10^−6 (* mixture of a lavandulol solution at 10^−6 and a Tween 60 solution at 10^−6)

Compound	Mean (choice of mites for the tested felt) ([1]; blue felt + 1 μl attracting agent (dil 10^−6) versus white felt + 1 μl H2O, 18 trials)	migration of the mites toward the blue felt ([1]; blue felt in combination with citral) [%]	attraction capabilities, percentage of mites (Dermatophagoides farinae; Dilution 10^−1) [%]	attraction capabilities, percentage of mites (Dermatophagoides farinae; Dilution 10^−3) [%]	attraction capabilities, percentage of mites (Dermatophagoides farinae; [3]) [%]	attraction capabilities, percentage of mites (Dermatophagoides farinae; Dilution 10^−9) [%]	attraction capabilities, percentage of mites (Dermatophagoides farinae; Dilution Undiluted) [%]	attraction capabilities, percentage of mites ([2]; Dilution 10^−3) [%]	attraction capabilities, percentage of mites [2, 3] [%]	attraction capabilities, percentage of mites ([2]; Dilution 10^−9) [%]	attraction capabilities, percentage of mites ([2]; Dilution Undiluted) [%]	mite control in delicate garments (mites)
CC(C)=CCCC(C)=CC=O [Citral, 3,7-dimethyl-2,6-octadienal, reference compound]	0.84	84	49	36	48	43	5	23	76	56	3	–
O=C(OCc1ccccc1)c1ccccc1 [benzyl benzoate]	–	–	–	–	–	–	–	–	–	–	–	possible to achieve mite control
Polyethylene glycol sorbitan monostearate [Tween 60]	–	–	–	54	81	39	7	70	78	57	14	–
